In ChEMBL document CHEMBL2157926, “Peptoid ligands that bind selectively to phosphoproteins” (Bioorg Med Chem Lett, 2011):
Active and inactive are the calls of the source. No cut-off for these calls is given here. Non-standard residues stand in square brackets, D forms with d. Residues, ends and D or L forms follow the SMILES beside them. Gly(N-(CH2)3N-pyrrolidone) = O=C(O)CNCCCN1CCCC1=O; N(4-hydroxyphenethyl)Gly = O=C(O)CNCCc1ccc(O)cc1; NFurfurylGly = O=C(O)CNCc1ccco1; Nleu = CC(C)CNCC(=O)O; Nlys = NCCCCNCC(=O)O; Nme = COCCNCC(=O)O

Columns and labels:
[1] = molecular target: T1, Bromodomain-containing protein 4 (Homo sapiens, UniProt O60885); experiment: Binding affinity to modified phosphorylated human BRD4 phosphorylation-dependent interaction domain (598-785) expressed in Sf9 cells assessed as red fluorescence by SDS-PAGE method based one-bead binding assay
[2] = molecular target: T1, Bromodomain-containing protein 4; experiment: Binding affinity to Flag tagged phosphorylated human BRD4 phosphorylation-dependent interaction domain (287-530) assessed as formation of cross-linking products at 0.1 uM in presence of sodium periodate using Neutravedin HRP by SDS-PAGE method
[3] = molecular target: T1, Bromodomain-containing protein 4; experiment: Binding affinity to modified phosphorylated human BRD4 phosphorylation-dependent interaction domain (287-530) expressed in Sf9 cells assessed as formation of cross-linking products in absence of sodium periodate using Neutravedin HRP by Western blot method
[4] = molecular target: T1, Bromodomain-containing protein 4; experiment: Binding affinity to modified phosphorylated human BRD4 phosphorylation-dependent interaction domain (287-530) expressed in Sf9 cells assessed as formation of cross-linking products in presence of sodium periodate using Neutravedin HRP by Western blot method
[5] = molecular target: T1, Bromodomain-containing protein 4; experiment: Binding affinity to Flag tagged phosphorylated human BRD4 phosphorylation-dependent interaction domain (287-530) assessed as formation of cross-linking products at 0.5 uM in presence of sodium periodate using Neutravedin HRP by SDS-PAGE method
[6] = molecular target: T1, Bromodomain-containing protein 4; experiment: Binding affinity to Flag tagged phosphorylated human BRD4 phosphorylation-dependent interaction domain (287-530) assessed as formation of cross-linking products at 0.5 uM in absence of sodium periodate using Neutravedin HRP by SDS-PAGE method
[7] = molecular target: T1, Bromodomain-containing protein 4; experiment: Binding affinity to modified phosphorylated human BRD4 phosphorylation-dependent interaction domain (598-785) using fluorescein 5-maleimide by fluorescence polarization method

Row | Activity [1] | Activity [2] | Activity [3] | Activity [4] | Activity [5] | Activity [6] | Kd [7] [µM] | SMILES
1 | Active | – | – | – | – | – | – | CC(C)CN(CC(=O)N(CCCCN)CC(=O)N(CC(=O)N(CCCCN)CC(=O)N(CCCCN)CC(N)=O)Cc1ccco1)C(=O)CNCCCN1CCCC1=O (H-[Gly(N-(CH2)3N-pyrrolidone)][Nleu][Nlys][NFurfurylGly][Nlys][Nlys]-NH2)
2 | – | inactive | inactive | Active | Active | inactive | – | COCCN(CC(=O)N(CCCCN)CC(=O)N(CCCCN)CC(=O)NC(Cc1ccc(O)c(O)c1)C(=O)N[C@H](CCC(=O)NCCCOCCOCCOCCCNC(=O)CCCC[C@@H]1SC[C@@H]2NC(=O)N[C@@H]21)C(N)=O)C(=O)CN(CCCCN)C(=O)CN(CCc1ccc(O)cc1)C(=O)CNCC(C)C (stereo partly drawn)
3 | inactive | – | – | – | – | – | 50 | COCCN(CC(=O)N(CCCCN)CC(=O)N(CCCCN)CC(N)=O)C(=O)CN(CCCCN)C(=O)CN(CCc1ccc(O)cc1)C(=O)CNCC(C)C (H-[Nleu][N(4-hydroxyphenethyl)Gly][Nlys][Nme][Nlys][Nlys]-NH2)
